The source of these data is publication PMC7504466, “In-Vitro and In-Silico Evaluations of Heterocyclic-Containing Diarylpentanoids as Bcl-2 Inhibitors Against LoVo Colorectal Cancer Cells” (Molecules, 2020).

The test system of data set [1] is T84 cells. The data set can be described thus: MTT cytotoxicity assay, T84 cells. Type of data set: cell-based. To be noted: Homo sapiens, 72 h post-treatment, read-out: IC50 (µM) KRAS T84. The protocol: (§1) The in-vitro cytotoxic activity of the synthesized compounds on seven human CRC cell lines including KRAS (T84, SW620, LoVo) and BRAF (HT29, NCI-H508, RKO and LS411N) mutated cells were determined by MTT assay as previously described. The IC50 values obtained are summarized in Table 2 in which 5-FU and normal human dermal fibroblasts (NHDF) were used as controls. Meanwhile, a heatmap (Figure 3) was also generated using GraphPad Prism v7.0 (GraphPad Software, La Jolla, CA, USA) to visualize the cytotoxic trends of synthesized compounds graphically.
(§2) A panel of KRAS (T84, SW620 and LoVo) and BRAF (HT29, NCI-H508, RKO and LS411N) mutated human CRC cell lines were grown in Dulbecco’s modified Eagle’s medium (DMEM) containing 10% fetal bovine serum (FBS) and 1% penicillin/streptomycin at 37 °C under 5% CO2 while NHDF cells were cultured in DMEM with 5% FBS under the same condition. The culture medium was replenished every two days until the cells reached 80–90% confluency for further usage. All cell lines (T84, ATCC®CCL-248™; SW620, ATCC®CCL-227™; LoVo, ATCC®CCL-229™; HT-29, ATCC®HTB-38; NCI-H508, ATCC®CCL-253™; RKO, ATCC®CRL-2577; LS411N, ATCC®CRL-2159; NHDF, ATCC® PCS-201-010™) were purchased from American Type culture Collections (ATCC, Manassas, VA, USA).
(§3) LoVo cells (1.5–5 × 10^3 cells/well) were seeded into a 96 well plate and incubated at 37 °C and 5% CO2 atmosphere for 24 h. On the following day, the cell media were replaced with 100 µL of test compounds at various concentration. The final concentration of DMSO in the well is 0.1%. After 72 h of incubation, culture medium was removed and 100 µL of MTT (thiazoyl blue tertrazolium bromide) solution (0.5 mg/mL in culture media) was added. The resultant plates were then further incubated at 37 °C for 4 h. Upon completion, the MTT solution was removed and the formazan salts formed were dissolved in 100 µL of DMSO. The absorbance was recorded with a microplate reader at 570 nm. The IC50 values of tested compounds were calculated from three independent experiments.
On the technique in general: Formazan colour is commonly taken as a measure of viable cells.

Data set [2] has as its system SW620 cells. The data set can be described thus: MTT cytotoxicity assay, SW620 cells. It is filed as cell-based. The note with it: Homo sapiens, SW-620, 72 h post-treatment, read-out: IC50 (µM) KRAS SW620. The protocol:
as §1, §2, §3

Data set [3] relates to LoVo cells. The data set can be described thus: MTT cytotoxicity assay, LoVo cells. It is filed as cell-based. To be noted: Homo sapiens, 72 h post-treatment, read-out: IC50 (µM) KRAS LoVo. The protocol:
as §1, §2, §3

For data set [4], the system named is HT29 cells. The data set is described as follows: MTT cytotoxicity assay, HT29 cells. It is filed as cell-based. The note with it: Homo sapiens, HT-29, 72 h post-treatment, read-out: IC50 (µM) BRAF HT29. The protocol:
as §1, §2, §3

The subject of data set [5] is NCI-H508 cells. The data set can be described thus: MTT cytotoxicity assay, NCI-H508 cells. Type of data set: cell-based. The note with it: Homo sapiens, 72 h post-treatment, read-out: IC50 (µM) BRAF NCI-H508. The protocol:
as §1, §2, §3

Data set [6] relates to RKO cells. The data set can be described thus: MTT cytotoxicity assay, RKO cells. The note with it: Homo sapiens, 72 h post-treatment, read-out: IC50 (µM) BRAF RKO. Type of data set: cell-based. Here is the method: as §1, §2, §3
The subject of data set [7] is LS411N cells. The data set can be described thus: MTT cytotoxicity assay, LS411N cells. It is filed as cell-based. To be noted: Homo sapiens, LS-411N, 72 h post-treatment, read-out: IC50 (µM) BRAF LS411N. The protocol:
as §1, §2, §3

Data set [8] concerns normal human dermal fibroblasts (NHDF). The data set can be described thus: MTT cytotoxicity assay, normal human dermal fibroblasts. To be noted: 72 h post-treatment. It is filed as cell-based. The protocol:
as §1, §2, §3

Data set [9] has as its system human CRC cell lines (T84, SW620, LoVo, HT29, NCI-H508, RKO, LS411N). The data set is described as follows: MTT cytotoxicity assay, panel of KRAS- and BRAF-mutated CRC cell lines. It is filed as cell-based. The note with it: several CRC cell lines, read-out: IC50 against several CRC cell lines. Here is the method: as §1
A panel of KRAS (T84, SW620 and LoVo) and BRAF (HT29, NCI-H508, RKO and LS411N) mutated human CRC cell lines were grown in Dulbecco’s modified Eagle’s medium (DMEM) containing 10% fetal bovine serum (FBS) and 1% penicillin/streptomycin at 37 °C under 5% CO2 while NHDF cells were cultured in DMEM with 5% FBS under the same condition. The culture medium was replenished every two days until the cells reached 80–90% confluency for further usage. […]
LoVo cells (1.5–5 × 10^3 cells/well) were seeded into a 96 well plate and incubated at 37 °C and 5% CO2 atmosphere for 24 h. […] The absorbance was recorded with a microplate reader at 570 nm. The IC50 values of tested compounds were calculated from three independent experiments.

As usually defined, the IC50 is the concentration at which inhibition is half-maximal. The term pIC50 denotes the IC50 on a negative log10 scale, so that one unit is a factor of ten. The melting point is the temperature, or range, at which the solid turns liquid.

Each structure is given as a SMILES string. pIC50: −log10 of the molar value. Bounds are passed on as bounds.

Regarding `COc1ccccc1C=C1CCCC(=Cc2ccccc2OC)C1=O` [Compound 2a, 2,6-Bis(2-methoxybenzylidene)cyclohexanone], the IC50 in data set [1], in data set [2], in [3], in data set [4], in data set [5] and in data set [6] was above 10 µM throughout. For the same compound, in data set [7], the IC50 was above 10 µM. The compound also gave a pIC50 in data set [8] below 4.70.
Compound `O=C1C(=Cc2ccc(F)c(F)c2)CCCC1=Cc1ccc(F)c(F)c1` [Compound 2c, 2,6-Bis(3,4-difluorobenzylidene)cyclohexanone] yielded a melting point of 90 to 91 °C. Also, the IC50 in data set [1] turned out to be 3.3 µM. Besides, the IC50 in data set [2] is 3.2 µM. Besides, the IC50 in [3] worked out at 3.3 µM. Moreover, the IC50 in data set [4] was determined as 5.4 µM. Further, in data set [5], the IC50 stood at 3.3 µM. Further, the IC50 in data set [6] worked out at 2.6 µM. Moreover, the IC50 in [7] came to 3.7 µM. In addition, the pIC50 in data set [8] was 4.89.
For `COc1ccccc1C=C1CSCC(=Cc2ccccc2OC)C1=O` [Compound 2d, 3,5-Bis(2-methoxybenzylidene)tetrahydro-4H-thiopyran-4-one], the melting point was in the range of 120 to 121 °C. Further, the IC50 in [1] was above 10 µM. Further, the IC50 in [2] is above 10 µM. Further, the IC50 in [3] was found to be 6.9 µM. Also, in [4], the IC50 is above 10 µM. Besides, the half-maximal inhibitory concentration (IC50) in data set [5] amounted to 5.3 µM. In addition, the IC50 in data set [6] came to 7.1 µM. Besides, in data set [7], the IC50 was 5.8 µM. Further, the pIC50 in data set [8] is 5.01.
Turning to `O=C1C(=Cc2ccc(F)c(F)c2)CSCC1=Cc1ccc(F)c(F)c1` [Compound 2f, 3,5-Bis(3,4-difluorobenzylidene)tetrahydro-4H-thiopyran-4-one], the IC50 in [1] was above 10 µM; in data set [2] it was 2.9 µM; in data set [3], 5.1 µM; in [4], above 10 µM; in [5], 6.2 µM; in data set [6] it was 2.4 µM. Further, in data set [7], the IC50 amounted to 5.9 µM. The values for the pIC50 in data set [8] and in data set [9] were 5.70 and 5.21 to 5.62, respectively.
As to `O=c1[nH]cc(F)c(=O)[nH]1` [Compound 5-FU, 5-fluorouracil, reference compound], the IC50 in data set [1] is above 10 µM; in data set [2], above 10 µM; in data set [3], 3.3 µM; in [4], above 10 µM; in data set [5] it was 8.6 µM; in data set [6], 2.9 µM. Besides, in data set [7], the IC50 is 4.6 µM. This compound also gave a pIC50 in [8] below 4.70.
Regarding `O=C1C(=Cc2ccccc2Br)CCCC1=Cc1ccccc1Br` [Compound 2b, 2,6-Bis(2-bromobenzylidene)cyclohexanone], the IC50 in [1] was above 10 µM; in data set [2], 8.9 µM; in data set [3], above 10 µM; in [4], above 10 µM; in data set [5] it was 7.8 µM; in [6], above 10 µM. The IC50 in data set [7] is above 10 µM. In data set [8], this compound showed a pIC50 below 4.70.
